According to patent publication US8058243B2, “Method for treating a brain cancer with ifenprodil” (HSC Research and Development Limited Partnership, priority 2006, dated 2011):
Where a name gives a salt, the structure may show the parent alone. Read-outs that look alike come from different tables or passages of the source.

Test system: murine neural precursor cells (neurosphere cultures)
Assay: HTS of LOPAC library against secondary neurosphere cultures, MTT proliferation assay at 3 μM, day 7 (z score, P value)
Format: cell-based, mouse
[1] = LOPAC library screen at 3 μM, secondary neurosphere cultures, MTT
[2] = primary LOPAC screen, 3 μM, MTT, neurosphere proliferation
[3] = yes/no: significantly inhibited neurosphere proliferation in the primary screen
[4] = LOPAC library screen, 3 μM, MTT, secondary neurosphere cultures, day 7
[5] = LOPAC primary screen, neurosphere MTT proliferation, 3 μM, day 7
[6] = yes/no: significantly inhibited neurosphere proliferation (P<0.01) in the primary screen
[7] = LOPAC screen, neurosphere MTT proliferation, 3 μM, day 7
[8] = yes/no: significantly inhibited neurosphere proliferation (P<0.01) in primary screen
[9] = yes = significantly inhibited neurosphere proliferation (P<0.01) in the primary screen
[10] = yes/no: significantly inhibited neurosphere proliferation in primary screen
[11] = LOPAC library screen, 3 μM, MTT, neurosphere cultures

CC(=O)NCCc1c[nH]c2ccc(O)cc12 [N-Acetyl-5-hydroxytryptamine] was tested, and the “Z Score” value [1] was −1.06, the Z score [2] was −1.060 and the Activity [3] was “no”.

In the case of CC(=O)N[C@@H](CS)C(=O)O [N-Acetyl-L-Cysteine], the “Z Score” value [4] is reported as −1.621, the Z score [2] is reported as −1.621 and the Activity [3] is reported as “no”.

In the case of CC(=O)NCCc1ccc(O)c(O)c1.O [N-Acetyldopamine monohydrate], the “Z Score” value is reported as 0.4667, the Z score [2] is reported as 0.467 and the Activity [3] is reported as “no”.

For CCN(CC)CCNC(=O)c1ccc(NC(C)=O)cc1.Cl [N-Acetylprocainamide hydrochloride], the “Z Score” value was −4.557, the Z score [5] was −4.557 and the Activity [6] was “yes”.

With CC(=O)NCCc1c[nH]c2ccccc12 [N-Acetyltryptamine] the “Z Score” value was 1.02, the Z score [2] was 1.020 and the Activity [3] was “no”.

CC(=O)NBr [N-Bromoacetamide] was tested, and the “Z Score” value [4] was −1.362, the Z score [7] was −1.362 and the Activity [8] was “no”.

With CCN1C(=O)C=CC1=O [N-Ethylmaleimide] the “Z Score” value was −0.02816, the Z score [5] was −0.028 and the Activity [8] was “no”.

With CN1C[C@H](O)[C@@H](O)[C@H](O)[C@H]1CO [N-Methyl-1-deoxynojirimycin] the “Z Score” value was −1.335, the Z score [5] was −1.335 and the Activity [9] was “no”.

CN[C@H](CC(=O)O)C(=O)O [N-Methyl-D-aspartic acid] was tested, and the “Z Score” value was −1.86, the Z score [5] was −1.860 and the Activity [9] was “no”.

CNC(=O)c1cc2c(cn1)[nH]c1ccccc12 [N-Methyl-beta-carboline-3-carboxamide] was tested, and the “Z Score” value (168 h, 3 µM) was 0.6988, the Z score (168 h, 3 µM) was 0.699 and the Activity [8] was “no”.

In the case of CNCCc1ccc(O)c(O)c1.Cl [N-Methyldopamine hydrochloride], the “Z Score” value [4] is reported as −1.219, the Z score [7] is reported as −1.219 and the Activity [8] is reported as “no”.

For CCCCCCCC/C=C\CCCCCCCC(=O)NCCc1ccc(O)c(O)c1 [N-Oleoyldopamine], the “Z Score” value (168 h, 3 µM) was 0.4633, the Z score (168 h, 3 µM) was 0.463 and the Activity [10] was “no”.

With CCCCCCCC/C=C\CCCCCCCC(=O)NCCO [N-Oleoylethanolamine] the “Z Score” value (168 h, 3 µM) was −0.4116, the Z score (168 h, 3 µM) was −0.412 and the Activity [10] was “no”.

In the case of O=C(O)c1ccccc1Nc1ccccc1 [N-Phenylanthranilic acid], the “Z Score” value [4] is reported as −1.61, the Z score [5] is reported as −1.610 and the Activity [10] is reported as “no”.

In the case of O=C(O)CCC(=O)N1CCC[C@H]1C(=O)O [N-Succinyl-L-proline], the “Z Score” value [11] is reported as 0.7246, the Z score [5] is reported as 0.725 and the Activity [10] is reported as “no”.

In the case of CCCCCCCCC(=O)NCc1ccc(O)c(OC)c1 [N-Vanillylnonanamide], the “Z Score” value [4] is reported as −9.029, the Z score [5] is reported as −9.029 and the Activity [6] is reported as “yes”.

In the case of NC(=O)C1=CN([C@@H]2O[C@H](COP(=O)([O-])OP(=O)([O-])OC[C@H]3O[C@@H](n4cnc5c(N)ncnc54)[C@H](OP(=O)([O-])[O-])[C@@H]3O)[C@@H](O)[C@H]2O)C=CC1.[Na+].[Na+].[Na+].[Na+] [NADPH tetrasodium], the “Z Score” value [11] is reported as 0.3021, the Z score [5] is reported as 0.302 and the Activity [9] is reported as “no”.

For COc1ccccc1N1CCN(CCCCN2C(=O)c3ccccc3C2=O)CC1 [NAN-190 hydrobromide], the “Z Score” value [1] was −0.6186, the Z score [5] was −0.619 and the Activity [9] was “no”.

With CCCN(CC1CC1)c1nc(C)nc(Nc2c(Cl)cc(Cl)cc2Cl)c1Cl [NBI 27914] the “Z Score” value was 0.1345, the Z score [5] was 0.134 and the Activity [8] was “no”.

In the case of NS(=O)(=O)c1cccc2c1c([N+](=O)[O-])cc1nc([O-])c([O-])nc12.[Na+].[Na+] [NBQX disodium], the “Z Score” value [4] is reported as −1.675, the Z score [5] is reported as −1.675 and the Activity [10] is reported as “no”.

For O=C(O)/C=C1\CCCc2ccccc2C1O (stereo not drawn) [NCS-382], the “Z Score” value was −1.733, the Z score [5] was −1.733 and the Activity [9] was “no”.

In the case of O=C(Nc1cc(C(=O)Nc2ccc(S(=O)(=O)[O-])cc2S(=O)(=O)[O-])cc(C(=O)Nc2ccc(S(=O)(=O)[O-])cc2S(=O)(=O)[O-])c1)Nc1cc(C(=O)Nc2ccc(S(=O)(=O)[O-])cc2S(=O)(=O)[O-])cc(C(=O)Nc2ccc(S(=O)(=O)[O-])cc2S(=O)(=O)[O-])c1.[Na+].[Na+].[Na+].[Na+].[Na+].[Na+].[Na+].[Na+] [NF449 octasodium salt], the “Z Score” value is reported as 1.851, the Z score [5] is reported as 1.851 and the Activity [9] is reported as “no”.

For O=C(Nc1cccc(C(=O)Nc2ccc(S(=O)(=O)[O-])c3cc(S(=O)(=O)[O-])cc(S(=O)(=O)[O-])c23)c1)Nc1cccc(C(=O)Nc2ccc(S(=O)(=O)[O-])c3cc(S(=O)(=O)[O-])cc(S(=O)(=O)[O-])c23)c1.[Na+].[Na+].[Na+].[Na+].[Na+].[Na+] [NF 023], the “Z Score” value was 1.115, the Z score [5] was 1.115 and the Activity [9] was “no”.

With CC(=O)O.NC(=NCCC[C@H](N)C(=O)O)NO [NG-Hydroxy-L-arginine acetate] the “Z Score” value [4] was −10.96, the Z score [5] was −10.958 and the Activity [6] was “yes”.

CC(=O)O.CNC(=N)NCCC[C@H](N)C(=O)O [NG-Monomethyl-L-arginine acetate] was tested, and the “Z Score” value [4] was −1.386, the Z score [5] was −1.386 and the Activity [9] was “no”.

With N=C(NCCC[C@H](N)C(=O)O)N[N+](=O)[O-] [NG-Nitro-L-arginine] the “Z Score” value [11] was 0.1385, the Z score [5] was 0.139 and the Activity [9] was “no”.

Cl.O=C(O)C1=CCCN(CCON=C(c2ccccc2)c2ccccc2)C1 [NO-711 hydrochloride] was tested, and the “Z Score” value was −0.4618, the Z score [5] was −0.462 and the Activity [9] was “no”.

O=c1onc2n1-c1cc(Br)ccc1OC2 [NS 2028] was tested, and the “Z Score” value was −2.684, the Z score [5] was −2.684 and the Activity [9] was “yes”.

For O=c1[nH]c2cc(C(F)(F)F)ccc2n1-c1cc(C(F)(F)F)ccc1O [NS-1619], the “Z Score” value was −0.4878, the Z score [5] was −0.488 and the Activity [10] was “no”.

In the case of COc1ccccc1N1CCN(CC(O)COc2cccc3ccccc23)CC1 (stereo not drawn) [Naftopidil dihydrochloride], the “Z Score” value [1] is reported as −0.1172, the Z score [5] is reported as −0.117 and the Activity [10] is reported as “no”.

With Oc1ccc2c3c1O[C@H]1[C@@H](O)CC[C@@]4(O)[C@@H](C2)N(CC2CCC2)CC[C@]314 [Nalbuphine hydrochloride] the Activity was “no”, the “Z Score” value was 0.07032 and the Z score was 0.070.

CCn1cc(C(=O)O)c(=O)c2ccc(C)nc21 [Nalidixic acid sodium] was tested, and the “Z Score” value was −0.3145, the Z score [5] was −0.314 and the Activity [9] was “no”.

In the case of C=CCN1CC[C@]23c4c5ccc(O)c4O[C@H]2/C(=N/N=C2\CC[C@@]4(O)[C@H]6Cc7ccc(O)c8c7[C@@]4(CCN6CC=C)[C@H]2O8)CC[C@@]3(O)[C@H]1C5 [Naloxonazine dihydrochloride], the “Z Score” value is reported as −0.6061, the Z score [5] is reported as −0.606 and the Activity [6] is reported as “no”.

With C=CCN1CC[C@]23c4c5ccc(O)c4O[C@H]2/C(=N/NC(=O)c2ccccc2)CC[C@@]3(O)[C@H]1C5 [Naloxone benzoylhydrazone] the “Z Score” value was 1.915, the Z score [5] was 1.915 and the Activity [6] was “no”.

With C=CCN1CC[C@]23c4c5ccc(O)c4O[C@H]2C(=O)CC[C@@]3(O)[C@H]1C5 [Naloxone hydrochloride] the “Z Score” value [4] was −10.14, the Z score [5] was −10.137 and the Activity [6] was “yes”.

In the case of O=C1CC[C@@]2(O)[C@H]3Cc4ccc(O)c5c4[C@@]2(CCN3CC2CC2)[C@H]1O5 [Naltrexone hydrochloride], the “Z Score” value [11] is reported as 0.3891, the Z score [5] is reported as 0.389 and the Activity [6] is reported as “no”.

For Oc1ccc2c3c1O[C@H]1c4oc5ccccc5c4C[C@@]4(O)[C@@H](C2)N(CC2CC2)CC[C@]314 [Naltriben methanesulfonate], the “Z Score” value was −0.3606, the Z score [5] was −0.361 and the Activity [10] was “no”.

Oc1ccc2c3c1O[C@H]1c4[nH]c5ccccc5c4C[C@@]4(O)[C@@H](C2)N(CC2CC2)CC[C@]314 [Naltrindole hydrochloride] was tested, and the “Z Score” value was −0.314, the Z score [5] was −0.314 and the Activity [9] was “no”.

In the case of c1ccc2c(CC3=NCCN3)cccc2c1 [Naphazoline hydrochloride], the “Z Score” value [4] is reported as −1.724, the Z score [5] is reported as −1.724 and the Activity [9] is reported as “no”.

In the case of CN(C)C(=O)Oc1cccc([N+](C)(C)C)c1 [Neostigmine bromide], the “Z Score” value is reported as 1.228, the Z score [5] is reported as 1.228 and the Activity [9] is reported as “no”.

With O=C(CCNNC(=O)c1ccncc1)NCc1ccccc1 [Nialamide] the “Z Score” value [11] was −0.02937, the Z score [5] was −0.029 and the Activity [9] was “no”.

For COC(=O)C1=C(C)NC(C)=C(C(=O)OCCN(C)Cc2ccccc2)C1c1cccc([N+](=O)[O-])c1 (stereo not drawn) [Nicardipine hydrochloride], the “Z Score” value (LOPAC library screen at 3 μM, MTT, secondary neurosphere cultures, screened in singlets) was 1.869, the Z score [5] was 1.869 and the Activity [9] was “no”.

For O=C(Nc1ccc([N+](=O)[O-])cc1Cl)c1cc(Cl)ccc1O [Niclosamide], the “Z Score” value [4] was −2.784, the Z score [5] was −2.784 and the Activity [6] was “yes”.

In the case of COC(=O)C1=C(C)NC(C)=C(C(=O)OC)C1c1ccccc1[N+](=O)[O-] [Nifedipine], the “Z Score” value (168 h, 3 µM) is reported as −0.2937 and the Z score (168 h, 3 µM) is reported as −0.294.

For O=C(O)c1cccnc1Nc1cccc(C(F)(F)F)c1 [Niflumic acid], the “Z Score” value [4] was −1.958, the Z score [5] was −1.958 and the Activity [9] was “no”.

For CC1(C)NC(=O)N(c2ccc([N+](=O)[O-])c(C(F)(F)F)c2)C1=O [Nilutamide], the “Z Score” value [11] was 0.1188, the Z score [5] was 0.119 and the Activity [9] was “no”.

In the case of CS(=O)(=O)Nc1ccc([N+](=O)[O-])cc1Oc1ccccc1 [Nimesulide], the Activity is reported as “yes”, the “Z Score” value [4] is reported as −2.395 and the Z score [5] is reported as −2.395.

With COCCOC(=O)C1=C(C)NC(C)=C(C(=O)OC(C)C)C1c1cccc([N+](=O)[O-])c1 (stereo not drawn) [Nimodipine] the “Z Score” value [1] was −0.8542 and the Z score [5] was −0.854.

Cc1ncc(CNC(=O)N(CCCl)N=O)c(N)n1.Cl [Nimsutine hydrochloride] was tested, and the Z score [5] was −0.652 and the Activity [9] was “no”.
